Experimental data reported in article PMC10118179, “Tannic acid, an IL-1β-direct binding compound, ameliorates IL-1β-induced inflammation and cartilage degradation by hindering IL-1β-IL-1R1 interaction” (PLOS ONE, 2023).

Target: T1, Interleukin-1β (IL-1β) (Homo sapiens, UniProt P01584)
T1 construct: gene IL1B; recombinant human IL-1β
Experiment: SPR (Biacore T200, IL-1β immobilized on CM5 chip)
Assay type: binding

T1 sequence (P01584 117-269): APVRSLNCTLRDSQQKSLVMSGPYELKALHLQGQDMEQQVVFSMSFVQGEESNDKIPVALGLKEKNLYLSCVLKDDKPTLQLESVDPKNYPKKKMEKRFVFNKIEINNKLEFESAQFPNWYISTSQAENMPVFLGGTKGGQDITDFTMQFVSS

## O=C(OC[C@H]1O[C@@H](OC(=O)c2cc(O)c(O)c(OC(=O)c3cc(O)c(O)c(O)c3)c2)[C@H](OC(=O)c2cc(O)c(O)c(OC(=O)c3cc(O)c(O)c(O)c3)c2)[C@@H](OC(=O)c2cc(O)c(O)c(OC(=O)c3cc(O)c(O)c(O)c3)c2)[C@@H]1OC(=O)c1cc(O)c(O)c(OC(=O)c2cc(O)c(O)c(O)c2)c1)c1cc(O)c(O)c(OC(=O)c2cc(O)c(O)c(O)c2)c1 [TA, Tannic acid]
  Kd: 822 nM
